The target in experiment [1] is T1, Beta-1,4-galactosyltransferase 1 (Bos taurus, UniProt P08037).
T1 sequence (P08037 whole entry): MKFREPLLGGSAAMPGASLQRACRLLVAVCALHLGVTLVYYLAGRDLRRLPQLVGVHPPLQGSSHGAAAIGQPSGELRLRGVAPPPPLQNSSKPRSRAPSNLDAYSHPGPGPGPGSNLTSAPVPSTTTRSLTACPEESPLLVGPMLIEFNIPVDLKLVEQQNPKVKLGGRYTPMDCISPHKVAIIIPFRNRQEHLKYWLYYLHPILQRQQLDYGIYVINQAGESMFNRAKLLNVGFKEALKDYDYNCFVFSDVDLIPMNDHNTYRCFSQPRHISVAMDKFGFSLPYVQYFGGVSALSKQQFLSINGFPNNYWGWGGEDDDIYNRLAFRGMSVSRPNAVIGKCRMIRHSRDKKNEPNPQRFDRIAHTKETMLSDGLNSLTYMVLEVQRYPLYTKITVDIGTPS
The experiment is described as follows: (§1) Inhibitory activity against bovine Beta-1,4-galactosyltransferase at 100 uM concentration.

For experiment [2], the target named is T2, Beta-1,4-galactosyltransferase 1 (Bos taurus) (UniProt P08037).
T2 sequence (whole entry): T1 sequence (P08037 whole entry)
Described as §1.

In experiment [3] the target is T2, Beta-1,4-galactosyltransferase 1 (Bos taurus). The experiment is described as follows: Inhibitory activity against bovine Beta-1,4-galactosyltransferase at 100 uM concentration; ND means Not detectable.

pKi: −log10 of the molar value.

Ki and Rate data for six compounds are collected here from ChEMBL document CHEMBL1127234, “Acceptor analogues as potential inhibitors of bovine -1,4-galactosyl transferase” (Bioorg Med Chem Lett, 1994).

In general, pKi refers to −log10 of the Ki, conventionally taken in molar units. High values mean a small Ki, low ones a large Ki.

`CC(=O)N[C@H]1[C@H](OCc2ccccc2)O[C@H](CO)[C@@H](N)[C@@H]1O`: in experiment [1], the pKi is 3.07. Moreover, in experiment [2], the Rate stood at 2%.
For the compound `CC(=O)N[C@H]1[C@H](O)[C@@H](N)[C@H](OCc2ccccc2)O[C@@H]1CO`, the Rate in experiment [2] was 4%.
`CC(=O)N[C@H]1[C@H](OCc2ccccc2)O[C@H](CO)[C@@H](O)[C@@H]1O` came in with a Rate in experiment [2] of 100%.
Turning to `CC(=O)N[C@H]1[C@H](O)[C@@H](N=[N+]=[N-])[C@H](OCc2ccccc2)O[C@@H]1CO`, in experiment [2], the Rate was determined as 27%.
Consider `CC(=O)N[C@H]1[C@H](OCc2ccccc2)O[C@H](CO)[C@@H](NC(C)=O)[C@@H]1O`, for which the results for the Rate in experiment [2] and in experiment [3] were 2% and “Not detectable”, respectively.
Consider `CC(=O)N[C@H]1[C@H](OCc2ccccc2)O[C@H](CO)[C@@H](N=[N+]=[N-])[C@@H]1O`, for which the Rate entry in experiment [3] was “Not detectable”.
